The values below come from patent US12661336B2, “Polymorphs of phenyl pyrrole aminoguandium salts” (SYNACT PHARMA APS, priority 2021, dated 2026).

The conditions of data set [1]: 40° C./75% RH for 24 hours.
Procedure: The resulting mixture was thermally cycled for 3 days between 40° C. and 5° C. (Ramp rate: 0.1° C./min with isothermal holds of 1 hour at 40° C. and 5° C.).
The resulting mixture was thermally cycled for 3 days between 40° C. and 5° C. (Ramp rate: 0.1° C./min with isothermal holds of 1 hour at 40° C. and 5° C.). Solids were isolated by centrifuge filtration and analysed wet by XRPD. Sample was dried at 40° C. under vacuum for 24 hours then reanalysed by XRPD.
The resulting mixture was thermally cycled for 3 days between 40° C. and 5° C. (Ramp rate: 0.1° C./min with isothermal holds of 1 hour at 40° C. and 5° C.). Solids were isolated by centrifuge filtration and analysed wet by XRPD.
A short description of data set [2]: Thermodynamic solubility of AP1189 salts in 0.5 M and 0.2 M buffer solutions (Example 6, Tables 38a, 38b). The note with it: for XRPD analysis of residual solids from solubility experiment / Solubility (mM freebase): 0.5 M buffer; for Solubility (mM freebase): 24 h.
For data set [3] the following is noted: buffer solution pH 1.2, pH adjusted to 1.2 with concentrated hydrochloric acid, samples fully dissolved, HPLC.
Procedure: As a result, the pH was adjusted to 1.2 with concentrated hydrochloric acid in both solutions. Both sample preparations were diluted 500 times with the sample diluent (acetonitrile:water 1:1 v/v).

Counter-ions that a name gives are not always drawn. Like-named read-outs stand apart in the source and are kept apart here.

“N-{3-[1-(2-nitrophenyl)-1H-pyrrol-2-yl]-allylidene}-aminoguanidinium edisylate [Ethane-1,2-disulfonic Acid Pattern 5]”: in data set [1], the “XRPD diffractogram after storage” value was “consistent with pattern 1”.

Take “N-{3-[1-(2-nitrophenyl)-1H-pyrrol-2-yl]-allylidene}-aminoguanidine glutaric acid salt [Glutaric Acid Pattern 1]”: the “XRPD diffractogram after storage” value in data set [1] was “resulted in a new pattern by XRPD (Pattern 4)”.

`N=C(N)NN=CC=Cc1cccn1-c1ccccc1[N+](=O)[O-].O=S(=O)(O)NC1CCCCC1` [Cyclamic Acid Pattern 5, N-{3-[1-(2-nitrophenyl)-1H-pyrrol-2-yl]-allylidene}-aminoguanidinium cyclamate]: the “XRPD diffractogram after storage” value in data set [1] is reported as “consistent with pattern 5”.

As for `CC(=O)O.N=C(N)NN=CC=Cc1cccn1-c1ccccc1[N+](=O)[O-]` [AP1189 acetate, N-{3-[1-(2-nitrophenyl)-1H-pyrrol-2-yl]-allylidene}-aminoguanidinium acetate], the “XRPD analysis of residual solids from solubility experiment” value in data set [2] (pH 1.2) is reported as “a likely HCl salt (assigned as HCl Pattern 1) was formed”; in data set [2] (pH 4.5), “remained”. For the same compound, the “solubility, comparison of salts (in words)” value in data set [2] (0.5 M buffers, succinate Pattern 1 compared with fumarate Pattern 1) is reported as “highest solubility”. Also, in data set [2] (pH 1.2), the “solubility at pH 1.2 (in words)” value was “high solubility”. Further, the “Determined concentration in pH 1.2 samples, pH 1.2 (time)” value is above 223 mg/mL in data set [3] and >617 mM (5 h) in data set [3] (time: acetate 5 h, succinate 0.5 h).

Consider `N=C(N)N/N=C/C=C/c1cccn1-c1ccccc1[N+](=O)[O-]` [Fumarate Salt Pattern 1 (Form D)], for which the “Solubility (mM freebase)” value was 7.84 mM freebase in data set [2] (pH 1.2, thermodynamic solubility) and 1.64 mM freebase in data set [2] (pH 4.5, thermodynamic solubility).
